# Test results taken from patent publication US11040027B2, “Protein kinase inhibitors for promoting liver regeneration or reducing or preventing hepatocyte death” (HEPAREGENIX GMBH, priority 2017, dated 2021).
# Legend:
# [1] = system: C57BL/6N female mice; assay: In vivo survival study after Jo2 antibody injection; conditions: 30 mg/kg oral gavage 1 h before i.p. 0.8 μg/g Jo2 antibody; versus vehicle only; 24 h; FIG. 1
# Procedure: C57BL/6N female mice, age 6-9 weeks, purchased from Charles River Laboratories, Research Models and Services, Germany GmbH (Sulzfeld), were housed in accordance with the institutional guidelines of the University of TObingen, Germany. All animal experiments were approved by the German legal authorities.
# Three experiments with n=3, n=4 and n=6 animals per group were performed. At time point t=−1 h), mice were dosed by oral gavage with either 30 mg/kg of compound, mixed in 2% hydroxymethylcellulose, pH 4.0) or vehicle only. One hour later (t=0 h), all animals were intraperitoneally (i.p.) injected with 0.8 μg/g mouse weight of Jo2 antibody (BD Pharmingen, San Diego, Calif.) diluted in 0.9% NaCl.
# Mice were continuously monitored and survival was monitored all 15 min. After 24 h, all surviving animals were sacrificed.
# [2] = biological target: BRaf (Homo sapiens, UniProt P15056); assay: KINOMEscan competition binding assay, selectivity BRaf versus MKK4; conditions: Test conc. 0.1 μM; ratio of percent of control; N/E* per footnote
# BRaf, sequence (P15056 whole entry): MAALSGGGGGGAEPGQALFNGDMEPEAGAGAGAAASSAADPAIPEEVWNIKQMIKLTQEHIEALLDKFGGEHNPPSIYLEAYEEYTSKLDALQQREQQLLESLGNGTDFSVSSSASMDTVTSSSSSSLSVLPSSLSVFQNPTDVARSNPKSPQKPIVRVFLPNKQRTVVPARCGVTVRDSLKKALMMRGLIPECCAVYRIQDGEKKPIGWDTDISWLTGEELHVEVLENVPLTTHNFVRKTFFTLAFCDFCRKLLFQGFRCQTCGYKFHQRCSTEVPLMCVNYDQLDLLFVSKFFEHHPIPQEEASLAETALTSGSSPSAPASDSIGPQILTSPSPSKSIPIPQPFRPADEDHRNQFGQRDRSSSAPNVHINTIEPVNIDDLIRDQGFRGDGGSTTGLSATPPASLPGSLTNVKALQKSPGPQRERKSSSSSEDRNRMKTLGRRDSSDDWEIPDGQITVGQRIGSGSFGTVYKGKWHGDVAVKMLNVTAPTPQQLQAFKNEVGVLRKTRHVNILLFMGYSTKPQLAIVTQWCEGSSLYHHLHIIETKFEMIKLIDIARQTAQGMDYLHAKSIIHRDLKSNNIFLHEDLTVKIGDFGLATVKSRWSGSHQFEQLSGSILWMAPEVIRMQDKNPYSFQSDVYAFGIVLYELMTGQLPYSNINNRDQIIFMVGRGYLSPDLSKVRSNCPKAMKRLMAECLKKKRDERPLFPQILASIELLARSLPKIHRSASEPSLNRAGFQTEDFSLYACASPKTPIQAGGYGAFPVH
# [3] = biological target: T1, MKK4 active (Homo sapiens, UniProt P45985); assay: Radiometric protein kinase assay, MKK4 active; format: biochemical; conditions: substrate JNK1 KRKR, ATP 0.2 μM, read-out: MKK4 (potency derived from IC50-values)
# T1 construct: purchased ProQinase 0948-0000-1
# T1 sequence (P45985 1-399): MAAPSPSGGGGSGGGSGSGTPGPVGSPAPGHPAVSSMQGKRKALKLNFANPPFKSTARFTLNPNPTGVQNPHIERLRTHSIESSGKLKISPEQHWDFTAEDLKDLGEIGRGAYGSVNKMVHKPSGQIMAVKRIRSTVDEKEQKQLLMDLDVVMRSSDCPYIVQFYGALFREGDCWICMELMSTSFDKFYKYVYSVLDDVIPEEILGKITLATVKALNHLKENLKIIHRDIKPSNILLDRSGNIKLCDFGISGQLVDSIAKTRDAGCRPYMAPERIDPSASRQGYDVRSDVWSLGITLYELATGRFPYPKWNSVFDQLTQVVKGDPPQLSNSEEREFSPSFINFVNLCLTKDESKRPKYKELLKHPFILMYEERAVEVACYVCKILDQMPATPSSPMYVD
# Procedure: (§1) A radiometric protein kinase assay was used for measuring the kinase activity of the respective protein kinases. All kinase assays were performed in 96-well polypropylene plates. After the reactions were stopped, the assay mixtures were transferred to 96-well MSFC filter-plates (Millipore). The reaction mix was passed through the filter membrane by aspiration, the membrane was washed 3 times with 150 mM H3PO4, once with ethanol, dried and liquid scintillation cocktail was added. Radioactivity was determined by counting of the samples in a Microbeta multiwell scintillation counter (Wallac).
# (§2) b) Single Kinases • 20 μl standard assay buffer • 5 μl compound in 10% DMSO • 20 μl enzyme-substrate mix • 10 μl of substrate solution
# (§3) The reaction cocktails were incubated at 30° C. for 30 minutes.
# [4] = biological target: T2, MKK7 (Homo sapiens, UniProt O14733); assay: KINOMEscan competition binding assay, selectivity MKK7 versus MKK4; conditions: Test conc. 0.1 μM; ratio of percent of control; N/E* per footnote
# T2 sequence (O14733 1-419): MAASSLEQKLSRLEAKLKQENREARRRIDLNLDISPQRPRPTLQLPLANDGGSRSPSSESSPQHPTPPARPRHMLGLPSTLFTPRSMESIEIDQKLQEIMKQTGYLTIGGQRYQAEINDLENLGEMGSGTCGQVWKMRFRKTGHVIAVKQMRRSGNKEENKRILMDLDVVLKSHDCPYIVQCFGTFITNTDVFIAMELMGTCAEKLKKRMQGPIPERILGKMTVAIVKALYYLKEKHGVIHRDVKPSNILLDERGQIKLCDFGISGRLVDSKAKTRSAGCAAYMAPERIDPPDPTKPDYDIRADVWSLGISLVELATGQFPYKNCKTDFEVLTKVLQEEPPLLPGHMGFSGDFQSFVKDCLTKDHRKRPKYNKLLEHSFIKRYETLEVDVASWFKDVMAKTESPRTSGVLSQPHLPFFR
# Procedure: (§4) The assay was performed by combining three components: DNA-tagged kinase; immobilized ligand; and a test compound. The ability of the test compound to compete with the immobilized ligand was measured via quantitative PCR of the DNA tag.
# (§5) For investigation of the affinity to MKK4, MKK7 and JNK1, the kinases were produced in HEK-293 cells and subsequently tagged with DNA for qPCR detection. […] The liganded beads were blocked with excess biotin and washed with blocking buffer (SEABLOCK™ (Pierce), 1% BSA, 0.05% TWEEN®20, 1 mM DTT) to remove unbound ligand and to reduce nonspecific binding. […] All reactions were performed in polystyrene 96-well plates in a final volume of 0.135 mL. […] The kinase concentration in the eluates was measured by qPCR.
# (§6) The test compounds were provided as 10 mM stock solutions. The test solutions at indicated final concentrations were prepared at DiscoverX.
# [5] = biological target: T3, MEKK2 (Homo sapiens, UniProt Q9Y2U5); assay: Radiometric protein kinase assay, MEKK2; format: biochemical; conditions: substrate Casein, ATP 0.2 μM; read-out: MEKK2 (potency derived from IC50-values)
# T3 construct: purchased ProQinase 0583-0000-1
# T3 sequence (Q9Y2U5 1-619): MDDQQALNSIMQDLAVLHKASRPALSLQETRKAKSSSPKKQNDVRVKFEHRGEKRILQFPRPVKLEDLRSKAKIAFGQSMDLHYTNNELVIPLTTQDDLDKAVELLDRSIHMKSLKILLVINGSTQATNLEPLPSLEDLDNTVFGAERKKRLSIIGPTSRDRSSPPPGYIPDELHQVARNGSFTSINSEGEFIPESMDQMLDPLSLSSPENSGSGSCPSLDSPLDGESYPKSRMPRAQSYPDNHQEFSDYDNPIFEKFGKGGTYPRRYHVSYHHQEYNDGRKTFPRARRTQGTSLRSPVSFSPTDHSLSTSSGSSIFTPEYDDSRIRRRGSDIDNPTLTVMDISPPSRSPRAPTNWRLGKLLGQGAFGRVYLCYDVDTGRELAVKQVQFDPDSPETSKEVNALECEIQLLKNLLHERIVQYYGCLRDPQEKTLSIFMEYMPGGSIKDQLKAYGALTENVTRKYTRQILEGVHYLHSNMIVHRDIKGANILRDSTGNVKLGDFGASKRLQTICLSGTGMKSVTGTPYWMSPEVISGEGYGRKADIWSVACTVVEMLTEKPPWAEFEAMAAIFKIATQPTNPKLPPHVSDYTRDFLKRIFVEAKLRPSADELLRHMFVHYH
# Procedure: as §1, §2, §3
# [6] = biological target: JNK1 (Homo sapiens, UniProt P45983); assay: KINOMEscan competition binding assay, selectivity JNK1 versus MKK4; conditions: ratio of percent of control
# JNK1, sequence (P45983 1-384 isoform P45983-2): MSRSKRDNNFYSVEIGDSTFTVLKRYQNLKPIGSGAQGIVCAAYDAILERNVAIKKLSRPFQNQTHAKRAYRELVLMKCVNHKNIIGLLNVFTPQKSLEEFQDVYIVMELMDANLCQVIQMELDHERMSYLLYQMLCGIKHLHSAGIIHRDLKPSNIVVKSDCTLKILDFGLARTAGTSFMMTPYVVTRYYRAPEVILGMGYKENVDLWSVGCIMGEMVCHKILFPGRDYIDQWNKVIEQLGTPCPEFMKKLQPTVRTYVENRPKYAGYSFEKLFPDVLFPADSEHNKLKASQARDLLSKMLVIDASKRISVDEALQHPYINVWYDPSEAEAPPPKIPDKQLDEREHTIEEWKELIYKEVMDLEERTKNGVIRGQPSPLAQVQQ
# Procedure: as §4, §5, §6
# [7] = biological target: T4, MKK4 (Homo sapiens, UniProt P45985); assay: KINOMEscan competition binding assay, MKK4; conditions: read-out: Potency MKK4 (derived from % of control values, PoC)
# T4 sequence (P45985 84-399): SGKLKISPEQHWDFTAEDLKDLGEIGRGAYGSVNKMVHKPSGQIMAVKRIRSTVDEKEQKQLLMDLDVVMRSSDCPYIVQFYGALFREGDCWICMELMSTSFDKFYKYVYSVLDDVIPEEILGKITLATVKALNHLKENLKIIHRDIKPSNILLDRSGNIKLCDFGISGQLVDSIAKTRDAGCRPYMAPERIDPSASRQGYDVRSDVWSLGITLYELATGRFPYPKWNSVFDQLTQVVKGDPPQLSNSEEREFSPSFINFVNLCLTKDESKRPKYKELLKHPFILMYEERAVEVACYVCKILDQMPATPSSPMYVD
# Procedure: as §4, §5, §6
Selectivity BRaf/MKK4 [2],IC50 [3] [µM],Selectivity MKK7/MKK4 [4],IC50 [5] [µM],"Selectivity JNK1/MKK4 ([6]; Test conc 0.1 μM, N/E* = PoC for JNK1 = 100)",remaining binding at 0.1 µM [7] [%],Selectivity JNK1/MKK4 ([6]; Test conc 10 μM),SMILES,survival rate [1]
,,,,,,,"CCCS(=O)(=O)Nc1ccc(F)c(C(=O)c2c[nH]c3ncc(-c4ccc(Cl)cc4)cc23)c1F [Example 2, Propane-1-sulfonic acid {3-[5-(4-chloro-phenyl)-1H-pyrrolo[2,3-b]pyridine-3-carbonyl]-2,4-difluoro-phenyl}-amide]",significantly higher
14,< 0.5,18,1 to 10,N/E* (PoC for JNK1 = 100),< 10,,"CCCS(=O)(=O)Nc1ccc(F)c(C(=O)c2c[nH]c3ncc(-c4cc5c(cc4Cl)OCCO5)cc23)c1F [Example 44, N-(3-(5-(7-Chloro-2,3-dihydrobenzo[b][1,4]dioxin-6-yl)-1H-pyrrolo[2,3-b]pyridine-3-carbonyl)-2,4-difluorophenyl)propane-1-sulfonamide]",
10.5,< 0.5,10,1 to 10,,10 to 30,>100,"CCCS(=O)(=O)Nc1ccc(F)c(C(=O)c2c[nH]c3ncc(-c4ccccc4Cl)cc23)c1F [Example 13, N-(3-(5-(2-Chlorophenyl)-1H-pyrrolo[2,3-b]pyridine-3-carbonyl)-2,4-difluorophenyl)propane-1-sulfonamide]",
